The values that follow come from PMC12428237, “Study on the Calcium Transport-Promoting Property and Mechanism of the Peptide–Calcium Complex DEEENDQVK–Ca Based on a Caco-2 Monolayer Model” (Foods, 2025).

Series [1] relates to Caco-2 monolayer. Kind of series: Calcium transport assay in Caco-2 monolayer model. The format is cell-based, human. Conditions: 120 min. On the procedure: Caco-2 cells (passages 15–30) were seeded at 1 × 10^5 cells/mL in Transwell chambers (12 mm, 0.4 μm pores, polycarbonate membrane, 1.12 cm^2 area) to establish a Caco-2 monolayer model. The culture medium (0.5 mL in the apical and 1.5 mL in the basolateral) was refreshed every 48 h (first week), then daily (next two weeks). The integrity of the Caco-2 cell monolayer model was verified by the following multiple indicators: Transepithelial electrical resistance (TEER) was monitored every 48 h using an epithelial voltohmmeter (RE1600, Beijing Jingong Hongtai Technology Co., Ltd., Beijing, China). Alkaline phosphatase (ALP) activity was measured on days 8, 12, 14, 16, and 21 after inoculation utilizing an ALP assay kit, following the manufacturer’s protocol. Transepithelial permeability was evaluated using sodium fluorescein following the method of Qiu et al..
Caco-2 monolayer models with a TEER value exceeding 500 Ω·cm^2 are permitted for calcium transport studies. Following three sequential washes with Hank’s balanced salt solution (HBSS; calcium/magnesium-free, pH 7.4), monolayers were equilibrated at 37 °C for 30 min. Afterward, the Transwell chambers were moved to fresh receiver plates for transport assays.
Concentration-dependent CaCl2 transport assay: 0.5 mL of CaCl2 solution (1.5~10 mM) was added to the apical (AP) side. The basolateral (BL) side contained 1.5 mL prewarmed HBSS. After 120 min incubation at 37 °C and 5% CO2, the BL side solution was collected for calcium transport analysis.
Time-dependent CaCl2 transport assay: The AP side contained 0.5 mL of 7.5 mM CaCl2 solution, and the BL side 1.5 mL prewarmed HBSS. At designated intervals (30~180 min), 1 mL BL side solution was collected and replaced with equal volumes of fresh HBSS buffer to maintain consistency.
Different concentrations of DK solution (0.5~2 mg/mL, 0.5 mL) containing 7.5 mM CaCl2, or 0.5 mL of DK–Ca solution (0.5~2 mg/mL), were added to the AP side. The BL side contained 1.5 mL prewarmed HBSS. The control group contained 7.5 mM CaCl2 alone on the AP side. At designated intervals (30~180 min), 1 mL BL side solution was collected and replaced with equal volumes of fresh HBSS buffer to maintain consistency.
Calcium concentration in the collected sample was measured using a calcium colorimetric assay kit at 575 nm. Transported calcium was calculated as follows:(1) Tn=1.5Cn+1×∑k=1n-1Ck […]
A general note: Caco-2 cells form a polarised layer with tight junctions and transporters.

Series [2] relates to Caco-2 monolayer. Kind of series: Effect of dietary components (vitamin D3, phytic acid) on calcium transport in Caco-2 monolayer. In kind it is cell-based, human. Conditions: 120 min, control without dietary component, n = 3. As for the experimental part:
Vitamin D3 (0.5 μmol/L, dissolved in 0.1% ethanol) or phytic acid (1.8 mM, with a of phytic acid/calcium molar ratio of 0.24) was added to the AP side to evaluate the effect of dietary components on calcium transport. The group without an added dietary component served as the control group. After 120 min incubation, the BL side solution was collected for calcium transport analysis.

For series [3] the following is noted: Caco-2; cited from earlier work.
For series [4], the system named is Caco-2 monolayer. As to the kind of experiment: Calcium transport channel assay with channel regulators. The format is cell-based, human. Conditions: then 2 mg/mL sample, 120 min, 37 °C, n = 3. On the procedure:
Before the calcium transport channel assay, 0.5 mL of HBSS buffer containing different channel regulators was added to the AP sides of the Transwell chambers. These channel regulators included 2-APB (25 μmol/L) as a calcium channel inhibitor of TRPV6, cytochalasin D (0.5 μmol/ mL) as a paracellular channel promoter, and mβCD (3 mmol/L) as an endocytic channel inhibitor. The group without the added channel regulator served as the control group. The BL side received a 1.5 mL HBSS buffer. Following 30 min incubation, solutions were removed from both sides. The AP side was then loaded with 0.5 mL of either DK–Ca (2 mg/mL) or 2 mg/mL DK + 7.5 mM CaCl2 solution, while the BL side received 1.5 mL HBSS. After 120 min incubation at 37 °C and 5% CO2, the BL solution was collected for calcium transport analysis.

In the next series the test system is TRPV6. As to the kind of experiment: RT-qPCR, TRPV6 mRNA expression. The format is cell-based, human. The settings on record: Caco-2 monolayer, 24 h, 2 mg/mL DK–Ca or 2 mg/mL DK + 7.5 mM CaCl2; normalized to GAPDH, 2^-ΔΔCt; n = 3. On the procedure: The expression levels of genes related to calcium transport channels were determined following the method of Li et al.. After 21 days of establishing the Caco-2 monolayer model, the monolayers were treated for 24 h with a complete medium containing 2 mg/mL DK–Ca or 2 mg/mL DK + 7.5 mM CaCl2. The group without an added sample served as the control group. Subsequently, the monolayers were washed thrice with HBSS buffer before cell lysis using 200 μL RNAiso Plus. Total RNA was extracted, and first-strand cDNA synthesis was subsequently performed with the PrimeScript® RT reagent kit as per the kit manufacturer’s instructions. Using cDNA as a template, RT-qPCR was performed with gene-specific primers targeting TRPV6, calbindin-D9k, PMCA1b, occludin, and claudin-2. The standard procedure for PCR amplification was as follows: 95 °C for 30 s, followed by 40 cycles of 95 °C for 5 s, 60 °C for 30 s, and 72 °C for 1 min. Target gene expression level was normalized to GAPDH and calculated using the 2^^(-ΔΔCt) relative quantification method. In experimental groups, GAPDH served as the internal reference gene for normalization. All primer sequences used in this study are detailed in Table S1.

Take “DEEENDQVK–Ca [DK–Ca, complex formed by chemically chelating DK with CaCl2]”: the transported calcium in the series with Caco-2 monolayer [1] (2 mg/mL DK–Ca (calcium content 300 μg/mL) on AP side, AP to BL, HBSS pH 7.4, 37 °C, calcium colorimetric kit 575 nm, mean ± SD, n = 3) is listed as 74.11 ± 1.25 μg/well. In addition, the “transported calcium, fold higher than that of the CaCl2 control group” value with Caco-2 monolayer [1] (calcium content 300 μg/mL (2 mg/mL peptide sample), AP to BL, 37 °C) is 1.83 fold. Also, in the series with Caco-2 monolayer [1] (equivalent calcium dose (7.5 mM)), the “calcium transport-promoting capacity relative to DK + CaCl2” value was 1.37 times. Besides, in the series with Caco-2 monolayer [2] (phytic acid 1.8 mM (phytic acid/calcium molar ratio 0.24) on AP side), the “reduction of transported calcium by phytic acid compared to the control group” value is on record as 7.83%. The “increase of transported calcium by vitamin D3 compared to the control group” value in the series on Caco-2 monolayer [2] (vitamin D3 0.5 μmol/L on AP side) stood at 11.3%. Also, in series [3], the “calcium dialysis rate relative to CaCO3” value is 1.79 times and the “solubility relative to blank control group (CaCO3)” value is recorded as 1.56 times. Besides, in the series on Caco-2 monolayer [4] (2-APB (25 μmol/L, TRPV6 inhibitor) pre-incubation 30 min on AP side), the “reduction of transported calcium by 2-APB treatment compared to the control group” value came out at 43.94%. The “improvement of transported calcium by cytochalasin D treatment compared to the control group” value in the series on Caco-2 monolayer [4] (cytochalasin D (0.5 μmol/ mL, paracellular channel promoter) pre-incubation 30 min on AP side) is reported as 14.82%. The “reduction of transported calcium by mβCD treatment compared to the control group” value in the series with Caco-2 monolayer [4] (mβCD (3 mmol/L, endocytic channel inhibitor) pre-incubation 30 min on AP side) was determined as 12.35%. In the series with TRPV6, the “TRPV6 mRNA expression, upregulation compared to the untreated control group” value was determined as 2.70 fold.
